Laboratory results taken from patent US8618159B2, “Substituted N-phenyl-bipyrrolidine carboxamides and therapeutic use thereof” (Sanofi, priority 2007, dated 2013).
Structures can show the parent of a compound that is named as a salt. Where two headings read alike, the source gives them in different places.

Key:
[1] = biological target: T1, rhesus (Macacca Mulatta) H3 receptor (Macaca mulatta, UniProt Q865E1); assay: Rhesus H3 radioligand binding assay ([3H]-Methylhistamine displacement, WGA SPA beads); set-up: species or system rhesus monkey (Macacca Mulatta); details: read-out: Affinity: ki in Rhesus H3 membrane
T1 construct: pcDNA5/FRT/TO (Invitrogen) containing the rhesus monkey (Macacca Mulatta) 445 amino acid H3 receptor
T1 sequence (Q865E1 1-445): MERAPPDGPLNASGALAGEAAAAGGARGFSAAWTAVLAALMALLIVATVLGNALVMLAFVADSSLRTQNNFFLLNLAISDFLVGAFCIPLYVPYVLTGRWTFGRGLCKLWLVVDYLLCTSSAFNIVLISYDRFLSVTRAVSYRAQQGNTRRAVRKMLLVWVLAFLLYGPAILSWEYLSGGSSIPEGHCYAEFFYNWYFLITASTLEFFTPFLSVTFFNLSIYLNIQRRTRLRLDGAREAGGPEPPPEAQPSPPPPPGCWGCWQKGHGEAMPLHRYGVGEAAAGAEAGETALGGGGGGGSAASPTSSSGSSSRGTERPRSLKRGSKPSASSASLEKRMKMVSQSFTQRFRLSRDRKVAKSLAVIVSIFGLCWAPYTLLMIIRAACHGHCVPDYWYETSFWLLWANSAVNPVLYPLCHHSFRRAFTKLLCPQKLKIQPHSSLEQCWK
Protocol: (§1) (Genbank #AY231164). Stably transfected cultures were amplified in tissue culture flasks by standard tissue culture methods and induced to express rhesus H3 by exposure to 500 ng/ml tetracycline (Cellgro) for 24 hours. After induction, cells were dissociated from flasks utilizing Cell Stripper (Cellgro). Cells were centrifuged (1K×g, 5 min) and pellet frozen in an ethanol-dry ice bath to disrupt cell membranes. Frozen cell pellet was re-suspended in 5 mM HEPES (pH 7.4, Invitrogen) at 10 ml/1000 cm2 of harvested cells. The cell suspension was drawn through an 18 gauge needle (2-3×) followed by a 23 gauge needle (2-3×) to further disrupt cell membranes. The cell suspension was centrifuged (40K×g, 30 min). Cell membrane pellet was re-suspended in 5 mM HEPES (pH 7.4, Invitrogen) at a final protein concentration of 10 mg/ml. Rhesus H3 membranes were stored under liquid nitrogen prior to use in [3H]-Methylhistamine and GTPγS radioligand binding assays.
Rhesus H3 radioligand binding assay was performed using rhesus H3 receptor membranes (prepared as described above), [3H]-Methylhistamine (Perkin Elmer) and WGA SPA beads (wheat germ agglutinin scintillation proximity assay) beads (Amersham). The assay was performed in 96-well Opti-Plates (Packard). Each reaction contained 50 μl rhesus H3 membranes (20-30 μg total protein), 50 μl WGA SPA beads (0.1 μg) and 50 μl of 83 Ci/mmol [^3H]-Methylhistamine (final concentration 2 nM) and 50 μl of tested compound. The compounds of this invention and/or vehicle were diluted with binding buffer from 10 mM DMSO stocks. Assay plates were sealed with TopSeal (Perkin Elmer) and mixed on shaker (25° C., 1 hour). Assay plates were read on TopCount scintillation counter (Packard). Results were analyzed by Hill transformation and Ki values were determined by Cheng-Prusoff equation.

rhesus H3 = assay: GTPγS radioligand binding assay, inhibition of rhesus H3 constitutive functional activity in cell membranes; type: biochemical, rhesus monkey (Macacca Mulatta); details: Table 1; relative to basal level
Protocol: as §1, with “Rhesus H3 membranes were prepared from the Flp-In T-REx 293 Cell Line (Invitrogen) stably transfected with pcDNA5/FRT/TO (Invitrogen) containing the rhesus monkey (Macacca Mulatta) 445 amino acid H3 receptor. (Genbank” for “(Genbank”

[2] = Table 2, stereoisomer comparison, procedure of Example 148
[3] = Table 1, [3H]-Methylhistamine 2 nM, Cheng-Prusoff

Row | SMILES | Ki [1, 2] | Ki [1, 3] | Inverse Agonism: % inhibition of Basal GTPγS binding in Rhesus H3 (rhesus H3)
1 | Cc1cc(N2CC[C@@H](N3CCC[C@@H]3C)C2)ccc1NC(=O)c1cc(F)ccc1C [Example 3, 5-Fluoro-2-methyl-N-[2-methyl-4-(2(2S)-methyl-[1,3′(3′R)]bipyrrolidinyl-1′-yl)-phenyl]-benzamide] | 7.3 nM | – | –
2 | Cc1cc(N2CC[C@H](N3CCC[C@H]3C)C2)ccc1NC(=O)c1cc(F)ccc1C [Example 5, 5-Fluoro-2-methyl-N-[2-methyl-4-(2(2R)-methyl-[1,3′(3′S)]bipyrrolidinyl-1′-yl)-phenyl]-benzamide] | 121 nM | – | –
3 | Cc1cc(N2CCC(N3CCCC3C)C2)ccc1NC(=O)c1ccc(F)cc1 (stereo not drawn) [Example 7, 4-Fluoro-N-[2-methyl-4-(2-methyl-[1,3′]bipyrrolidinyl-1′-yl)-phenyl]-benzamide] | – | 2.06 nM | −31%
4 | Cc1cc(N2CC[C@@H](N3CCC[C@@H]3C)C2)ccc1NC(=O)c1cc(F)ccc1C [Example 11, 5-Fluoro-2-methyl-N-[2-methyl-4-(2-(2S)-methyl-[1,3′(3′S)]bipyrrolidinyl-1′-yl)-phenyl]-benzamide] | 2.5 nM | – | –
5 | Cc1cc(N2CC[C@@H](N3CCC[C@H]3C)C2)ccc1NC(=O)c1cc(F)ccc1C [Example 12, 5-Fluoro-2-methyl-N-[2-methyl-4-(2-(R)-methyl-[1,3′(R)]bipyrrolidinyl-1′-yl)-phenyl]-benzamide hydrochloride] | 147 nM | – | –
6 | Cc1cc(N2CC[C@H](N3CCC[C@@H]3C)C2)ccc1NC(=O)c1ccc2[nH]ccc2c1 [Example 52, 1H-Indole-5-carboxylic acid [2-methyl-4-(2(S)-methyl-[1,3′(5)]-bipyrrolidinyl-1′-yl)-phenyl]-amide trifluoroacetate] | – | 0.77 nM | −17%
7 | Cc1cc(N2CC[C@H](N3CCC[C@@H]3C)C2)ccc1NC(=O)c1ccc2ccoc2c1 [Example 73, Benzofuran-6-carboxylic acid [2-methyl-4-(2(S)-methyl-[1,3′(S)]bipyrrolidinyl-1′-yl)-phenyl]-amide trifluoroacetate] | – | 0.78 nM | −15%
8 | Cc1cccc(C(=O)Nc2ccc(N3CC[C@H](N4CCC[C@@H]4C)C3)cc2C)n1 [Example 86, 6-Methyl-pyridine-2-carboxylic acid [2-methyl-4-(2(S)-methyl-[1,3′(S)]bipyrrolidinyl-1′-yl)-phenyl]-amide trifluoroacetate] | – | 1.42 nM | −18%
